Reference: article PMC3293837, “Biophysical Property and Broad Anti-HIV Activity of Albuvirtide, a 3-Maleimimidopropionic Acid-Modified Peptide Fusion Inhibitor” (PLoS ONE, 2012)
Like-named read-outs stand apart in the source and are kept apart here.

How the values were obtained:
HIV-1 = conditions: cited from earlier work
[1] = tested on: HIV-1NL4-3 Q40H pseudovirus; format: cell-based; conditions: HIV-1NL4-3 Q40H; TZM-bl, 48 h; mean ± SD of three independent experiments
Experimental: (§2) The mutations were created using double-stranded DNA templates and selection of mutants with DpnI. For each mutation, the two primers contained the desired mutation and occupied the same starting and ending positions on opposite strands of the plasmid DNA. DNA synthesis was carried out by PCR in a 50-µL reaction volume using 1 µL of denatured plasmid template (1 ng/µL), 50 pmol of upper and lower primers and 5 U of high-fidelity thermostable polymerase PrimeStar (Takara, Dalian, China). PCR amplification was carried out for one cycle of denaturation at 98°C for 5 min, then 18 cycles of 98°C for 15 s and 68°C for 15 min, followed a final extension at 72°C for 10 min. The amplicons were treated with the restriction enzyme DpnI for 1 h at 37°C. DpnI-resistant molecules, which were rich in the desired mutants, were recovered by transforming Escherichia coli strain-DH5α to antibiotic resistance. The successful mutations were confirmed by sequencing.
(§3) HIV-1 pseudoviruses were generated as described previously [32], [55]–[56]. Briefly, 293T cells (5×10^6 cells in 15 ml of growth medium in a T-75 culture flask) were cotransfected with 10 µg of an Env-expressing plasmid and 20 µg of a backbone plasmid pSG3deltaEnv that encodes Env-defective, luciferase-expressing HIV-1 genome using Lipofectamine 2000 reagent (Invitrogen). Pseudovirus-containing culture supernatants were harvested 48 hours after transfection and filtered by 0.45-mm pore size, and stored at −80°C in 1-ml aliquots until use. The 50% tissue culture infectious dose (TCID50) of a single thawed aliquot of each pseudovirus batch was determined in TZM-bl cells. […] Briefly, the peptides were prepared with ten series dilutions in a 3-fold stepwise manner and mixed with 100 TCID50 viruses and incubated 1 hour at room temperature. The mixture was added to TZM-bl cells (10^4/well) and incubation at 37°C for 48 hours. Luciferase activity was measured using luciferase assay regents (Promega, Medison, WI) and a Luminescence Counter (Promega) according to the manufacture's instructions.

[2] = tested on: HIV-1NL4-3 V38A pseudovirus; format: cell-based
Experimental: as §3

[3] = tested on: T20-resistant HIV-1NL4-3 variants; conditions: HIV-1NL4-3 with single or double gp41 mutations
Experimental: Luciferase activity was measured using luciferase assay regents (Promega, Medison, WI) and a Luminescence Counter (Promega) according to the manufacture's instructions.

[4] = tested on: HIV-1NL4-3 L33S infectious molecular clone; format: cell-based
Experimental: The mutant viruses were generated by transient transfection of NL4-3 plasmids into 293T cells. The virus stocks were harvested 48 hours post-transfection and quantified for TCID50. […] In brief, 100 TCID50 viruses were used to infect TZM-bl cells in the presence or absence of serially diluted peptides. Two days post-infection, the cells were harvested and lysed in reporter lysis buffer, and the luciferase activity was measured. The IC50 was calculated as described above using GraphPad Prism software (GraphPad Prism software Inc., San Diego, CA).

[5] = tested on: HIV-1NL4-3 V38A/N42T pseudovirus; format: cell-based
Experimental: as §3

[6] = tested on: B01 pseudovirus (subtype B′); format: cell-based, HIV-1; conditions: R5, TZM-bl, 48 h, triplicate, mean ± SD of at least three independent experiments
From the text: (§1) A panel of plasmids encoding HIV-1 Envs were obtained through the AIDS Research and Reference Reagent Program (ARRRP), Division of AIDS, NIAID, NIH, including subtype A Env clones pSVIII-92RW020.5 and 92UG037.8 from Dr. B.H. Hahn; subtype B Env clones SC422661.8, TRO.11 and AC10.0.29 from Drs. D. Montefiori, F. Gao and M. Li, pRHPA4259.7 and pREJO4541.67 from Drs. B.H. Hahn and J.F. Salazar-Gonzalez, and pCAAN5342.A2 from Drs. B.H. Hahn and D.L. Kothe; subtype C Env clones Du172.17 and Du422.1 from Drs. D. Montefiori, F. Gao, S. Abdool Karim and G. Ramjee, CAP45.2.00.G3 from Drs. L. Morris, K. Mlisana and D. Montefiori, ZM197M.PB7 from Drs. B.H. Hahn, Y. Li and J.F. Salazar-Gonzalez, ZM109F.PB4 from Drs. E. Hunter and C. Derdeyn. Six CRF07_BC Env clones (CH064.20, CH070.1, CH091.9, CH110.2, CH119.10 and CH120.6) were generous gifts by Dr. Y. Shao in the Chinese Center for Disease Control and Prevention, Beijing, China. A panel of Env clones derived from subtype B′ (B01, B02, B04, and 43-22), CRF01_AE (SHX335.24, YN192.31, AE01, AE03, GX2010.36, GX11.13, GX2010.36H, BJ5.11), and CRF07_BC (BC02, BC03, BC05, BC07, BC14, SC19-15, BJ22-5, YN148R-9, XJ50-6, HB5-3) were kindly provided by Dr. Y. Wang from the National Institute for the Control of Pharmaceutical and Biological Products, Beijing, China.

[7] = tested on: 43-22 pseudovirus (subtype B′); format: cell-based, HIV-1; conditions: 43-22, B′, R5; TZM-bl, 48 h; triplicate, mean ± SD of at least three independent experiments
From the text: as §1

[8] = tested on: 92UG037.8 pseudovirus (subtype A); format: cell-based, HIV-1; conditions: 92UG037.8, subtype A, R5; TZM-bl, 48 h; triplicate, mean ± SD of three independent experiments
From the text: as §1

[9] = tested on: BC07 pseudovirus (CRF07_BC); format: cell-based, HIV-1; conditions: R5, TZM-bl, 48 h, triplicate, mean ± SD of at least three independent experiments
From the text: as §1

[10] = tested on: CH070 pseudovirus (CRF07_BC); format: cell-based, HIV-1; conditions: R5, TZM-bl, 48 h, triplicate, mean ± SD of at least three independent experiments
From the text: as §1

[11] = tested on: TRO.11 pseudovirus (subtype B); format: cell-based, HIV-1; conditions: TRO.11, subtype B, R5; TZM-bl, 48 h; triplicate, mean ± SD of three independent experiments
From the text: as §1

[12] = tested on: SC422661.8 pseudovirus (subtype B); format: cell-based, HIV-1; conditions: SC422661.8, subtype B, R5; TZM-bl, 48 h; triplicate, mean ± SD of three independent experiments
From the text: as §1

[13] = tested on: BC03 pseudovirus (CRF07_BC); format: cell-based, HIV-1; conditions: R5, TZM-bl, 48 h, triplicate, mean ± SD of at least three independent experiments
From the text: as §1

[14] = tested on: HIV-1NL4-3 Env-pseudotyped virus; format: cell-based; conditions: TZM-bl
Experimental: as §3

[15] = tested on: HIV-1NL4-3 I37T/N43K pseudovirus; format: cell-based; conditions: HIV-1NL4-3 I37T/N43K; TZM-bl, 48 h; mean ± SD of three independent experiments
Experimental: as §2, §3

[16] = tested on: HIV-1 subtype B′ pseudoviruses; format: cell-based; conditions: mean over subtype B′ pseudoviruses of Table 2; TZM-bl
From the text: as §1

[17] = tested on: HIV-1 subtype B pseudoviruses; format: cell-based
From the text: as §1

[18] = tested on: HIV-1 subtype A pseudoviruses; format: cell-based; conditions: mean over subtype A pseudoviruses of Table 1; TZM-bl
From the text: as §1

[19] = tested on: HIV-1 CRF01_AE pseudoviruses; format: cell-based; conditions: mean over CRF01_AE pseudoviruses of Table 2; TZM-bl
From the text: as §1

[20] = tested on: HIV-1 CRF07_BC pseudoviruses; format: cell-based; conditions: mean over CRF07_BC pseudoviruses of Table 2; TZM-bl
From the text: as §1

[21] = tested on: HIV-1 subtype C pseudoviruses; format: cell-based; conditions: mean over subtype C pseudoviruses of Table 1; TZM-bl
From the text: as §1

## enfuvirtide
HIV-1
  inhibition of viral entry (in words): low nanomolar concentration
[1]
  IC50: 731 ± 35.2 nM
[2]; HIV-1NL4-3 V38A, TZM-bl, 48 h, mean ± SD of three independent experiments
  IC50: 1260 ± 182 nM
[2]; V38A single mutation
  resistance change with V38A (in words): high-fold resistance changes
[3]
  activity on T20-resistant variants (in words): high level resistance
[4]; L33S infectious molecular clone of HIV-1NL4-3, TZM-bl, 100 TCID50, two days, mean ± SD of three independent experiments
  IC50: > 750 nM
[4]; infectious molecular clone, T20 up to 750 nM
  inhibitory activity on L33S virus (in words): no any inhibitory activity at a concentration up to 750 nM
[5]; HIV-1NL4-3 V38A/N42T, TZM-bl, 48 h, mean ± SD of three independent experiments
  IC50: > 3000 nM
[5]; V38A/N42T double mutations
  resistance change with V38A/N42T (in words): high-fold resistance changes
[6]
  IC50: 49.5 ± 2.41 nM
[7]
  IC50: 12.1 ± 3.24 nM
[8]
  IC50: 3.55 ± 0.95 nM
[9]
  IC50: 12.5 ± 1.58 nM
[10]
  IC50: 136 ± 36.4 nM
[11]
  IC50: 334 ± 48.9 nM
[12]
  IC50: 28.2 ± 5.92 nM
[13]
  IC50: 3.46 ± 0.41 nM
[14]; Fig. 5A, 100 TCID50, 48 h 37°C, luciferase, mean, three independent experiments, read-out: mean IC50, virus entry
  IC50: 70.7 nM
[14]; HIV-1NL4-3 WT pseudovirus, Table 3, 48 h, mean ± SD of three independent experiments, read-out: IC50
  IC50: 62.5 ± 11.9 nM
[15]
  IC50: > 3000 nM
[16]
  IC50: 19.5 nM
[17]; mean over subtype B pseudoviruses of Table 1, TZM-bl
  IC50: 214 nM
[17]; some Envs derived from subtype B, compared to other HIV-1 isolates
  sensitivity of some subtype B Envs (in words): much less sensitive
[18]
  IC50: 14.5 nM
[19]
  IC50: 68.1 nM
[20]
  IC50: 47.2 nM
[21]
  IC50: 55.2 nM
